Results: patent US20250090441A1, “ANTI-CARIES PEPTIDES WITH ANTIMICROBIAL AND REMINERALIZING PROPERTIES AND METHODS THEREOF” (THE UNIVERSITY OF HONG KONG, priority 2023, published 2025)
Where a SMILES comes first, the peptide text is derived from it.

Legend:
[1] = Effect on hard tissue, biofilm remineralization cycling model (micro-CT, FTIR); settings: carious dentine, 160 μM GAPI
Text: Dentine slices, 2 mm thick, were cut from sound extracted third molars. Ultra-fine 4000-grit sandpaper was used to polish these slices. Slices with defects were eliminated based on a stereomicroscope observation. A total of forty dentine slices were selected. Each slice was separated into two blocks and assigned to two groups. Nail varnish was used to coat half of the blocks as an internal control. S. mutans American Type Culture Collection 35668 was utilized in the present study. All the dentine blocks were placed into S. mutans culture (10^8 cells/mL) in a brain-heart infusion (BHI) broth containing 5% glucose to generate artificial caries. After a 3-day anaerobic culture at 37° C., the depth of the caries lesion surface was around 96 μm, which was observed using micro-computed tomography (micro-CT).
Two blocks from the same slice were assigned to the GAPI group (160 μM GAPI) and control group (deionized water) separately. All the blocks underwent a biochemical model involving chemical remineralization and an S. mutans biofilm challenge for seven days. The remineralization solution (pH 7.0) consisted of 1.5 mm calcium chloride, 150 mm potassium chloride, 0.9 mm potassium dihydrogen phosphate, and 20 mm 4-(2-hydroxyethyl)-1-piperazineethanesulfonic acid. The cycling process included 8 h of immersion in the remineralization solution and 16 h of immersion in an S. mutans biofilm medium.
Micro-CT (SkyScan 1272, Antwerp, Belgium) was employed to evaluate the lesion depths and mineral losses (n=8 for each group). The X-ray source parameters were set at an 80 kV voltage and 100 μA current with an image pixel size of 10 μm. Moreover, two standard mineral cylindrical phantoms (Bruker, Kontich, Belgium) with mineral density values (MDVs, gHApcm^−3) of 0.25 gHApcm^−3 and 0.75 gHApcm^−3 were scanned to calibrate the blocks' greyscales. The NRecon reconstruction software (Version 1.7.4.6, SkyScan, Antwerp, Belgium) was utilized to reconstruct the scanning images. The CTAn data analysis software (CTAn version 1.20.3.0, Skyscan NV, Kontich, Belgium) was employed to analyze the cross-sectional images. The lesion depths were measured, and the images' greyscale values were calibrated. Subsequently, the demineralized and control areas were calculated into the MDV for each block. The mineral loss was determined as the difference between the MDV of the control and the MDV of the demineralized area (Niu et al., 2022).
FTIR (Spectrum Two, PerkinElmer, Waltham, MA, USA) was employed to examine the changes in the dentin's chemical structures (n=8 for each group). […] The ratio of the HPO4^2− to amide I absorbance area represented the degree of demineralization in the dentin.

[2] = system: Lacticaseibacillus casei in multiple-species cariogenic biofilm; experiment: Multiple-species cariogenic biofilm, PMA-qPCR; type: cell-based; settings: three-species biofilm treated with GAPI, n=6 per group
Procedure: (§1) A multiple-species cariogenic biofilm consisting of Streptococcus mutans, Lacticaseibacillus casei and Candida albicans was cultured to assess the anti-biofilm properties of GAPI. The culture medium was modified-artificial saliva as described in a previous protocol (Yassin et al. 2016). The biofilm was cultured on glass slides in 24-well plates with 1×10^7 Streptococcus mutans, 1×10^7 Lacticaseibacillus casei and 1×10^5 Candida albicans for 48 h. The biofilm was then treated with GAPI. The biofilm with no treatment was the negative control. After another 48-h incubation, the biofilm was collected for sequent assessments. The architecture of the multiple-species biofilm was assessed using scanning electron microscopy (SEM) and confocal laser scanning microscopy (CLSM). The sample was prepared with our published protocol (Niu et al. 2021d). The growth kinetics of the multiple-species biofilm were analyzed using propidium monoazide-quantitative polymerase chain reaction (PMA-qPCR) (Loozen et al. 2011). Biofilm was suspended in phosphate-buffered solution. The suspension was treated with propidium monoazide (PMA) (Biotium, San Francisco, USA) and exposed to halogen light photoactivation (PMA-Lite™, Biotium, San Francisco, USA). The brightness (luminosity) of the light device is 600-800 millicandela and its wavelength is 465-475 nm. Then deoxyribonucleic acid (DNA) was extracted from PMA-treated biofilm suspension using QIAamp DNA Mini Kit (QIAGEN, Dusseldorf, Germany). The oligonucleotide primers and TaqMan probes were used to quantify multiple-species cariogenic biofilm species: SMUT-forward(F), SMUT-reverse(R) and SMUT-probe(P) for Streptococcus mutans, Lc-F, Lc-R, Lc-P for Lactobacillus casei and Ca—F, Ca—R and Ca-P for Candida albicans […]. […]
(§2) Biofilm was suspended in phosphate-buffered solution. […] The oligonucleotide primers and TaqMan probes were used to quantify multiple-species cariogenic biofilm species: SMUT-forward(F), SMUT-reverse(R) and SMUT-probe(P) for Streptococcus mutans, Lc-F, Lc-R, Lc-P for Lactobacillus casei and Ca—F, Ca—R and Ca-P for Candida albicans (Table 3). […]

[3] = system: Candida albicans in multiple-species cariogenic biofilm; experiment: Multiple-species cariogenic biofilm, PMA-qPCR; type: cell-based; settings: three-species biofilm treated with GAPI, n=6 per group
Procedure: as §1, §2

[4] = system: Streptococcus mutans in multiple-species cariogenic biofilm; experiment: Multiple-species cariogenic biofilm, PMA-qPCR; type: cell-based; settings: three-species biofilm treated with GAPI, n=6 per group
Procedure: as §1, §2

[5] = 7 days cycling, micro-CT, n = 8

Which lesion depths [1] does the source give for `CC(C)[C@@H]1NC(=O)[C@H](CCCN=C(N)N)NC(=O)[C@H](Cc2ccccc2)NC(=O)[C@@H](NC(=O)[C@H](Cc2c[nH]c3ccccc23)NC(=O)[C@H](CCCN=C(N)N)NC(=O)[C@H](CCCN=C(N)N)NC(=O)c2cc(O)c(O)c(O)c2)CSSC[C@@H](C(=O)N[C@@H](CCCN=C(N)N)C(=O)O)NC(=O)[C@H](CCCCN)NC(=O)[C@H](CCCN=C(N)N)NC(=O)[C@H](Cc2ccc(O)cc2)NC(=O)[C@@H]2CSSC[C@H](NC1=O)C(=O)N[C@@H](Cc1ccc(O)cc1)C(=O)N[C@@H](CCCN=C(N)N)C(=O)NCC(=O)N[C@@H](Cc1ccccc1)C(=O)N2` [GAPI, Gallic-Acid-Polyphemusin-I] (HELM PEPTIDE1{[O=C(c1cc(O)c(O)c(O)c1)[*:2]].R.R.W.C.F.R.V.C.Y.R.G.F.C.Y.R.K.C.R}$PEPTIDE1,PEPTIDE1,5:R3-18:R3|PEPTIDE1,PEPTIDE1,9:R3-14:R3$$$V2.0) here?
Its lesion depths is 151±18 μm.

What about the “Hydrogen phosphate-to-amide I ratio” value ([1]; 7 days cycling, FTIR, n = 8) of the same molecule?
Its value is 2.92±0.82.

What about the Lesion depth [1, 5] of the same molecule?
The Lesion depth was 151 ± 18 μm.

And the Mineral loss [1, 5]?
The Mineral loss was 0.91±0.07 gHAcm^−3.

What about the “log 10 cell counts of Lacticaseibacillus casei” value [2] of the same molecule?
The value was 7.33±0.38.

What about the “log 10 cell counts of Candida albicans” value [3] of the same molecule?
The value was 6.63±0.55.

What about the “log 10 cell counts of Streptococcus mutans” value [4] of the same molecule?
The value was 6.05±0.37.
